Assay results published in patent publication US11026946B2, “Pharmacologically active alicyclic-substituted pyrazolo[1,5-a]pyrimidine derivatives” (RICHTER GEDEON NYRT., priority 2017, dated 2021).

Key:
GABAB receptor = target: T1, GABAB receptor (Rattus norvegicus, UniProt O88871+Q9Z0U4); assay: In vitro [35S]GTPγS binding assay in rat cortical membranes; format: biochemical; conditions: PAM EC50, [35S]GTPγS binding, read-out: In vitro PAM potency
T1 construct: from tissue; host or cells: rat brain cortex membranes
Description: In Vitro [^35S]GTPγS Binding Assay in Rat Cortical Membranes
Cortices of freshly harvested rat brains were dissected on an ice-cold surface and homogenized by a glass Dounce homogeniser immediately in ice-cold buffer containing 50 mM Tris, 5 mM MgCl2 and 1 mM EDTA (pH=7.6). Tissue homogenates were centrifuged at 40000 g for 15 min at 4° C. Membrane pellets were resuspended in the same buffer and membranes were incubated for 10 min at 30° C. in a shaking water bath to eliminate endogenous GABA. Homogenates were centrifuged again under the same conditions. The final pellets were resuspended in ice-cold buffer (pH=7.6) containing 50 mM Tris, 100 mM NaCl, 7 mM MgCl2, 1 mM EDTA and 1 mM dithiotreithol (DTT) to yield a concentration of 20 mg tissue weight/ml and frozen at −70° C. until use. The assay was done in a buffer containing 50 mM Tris (pH=7.4), 100 mM NaCl, 7 mM MgCl2, 1 mM EDTA and 1 mM DTT. Each assay tube contained 150 μL GDP (in a final concentration of 50 μM), 100 μL ligand and 125 μL of the membrane suspension (250 μg tissue/tube). The assay tubes were preincubated for 10 min at 30° C. to assure equilibrium. Nonspecific binding was determined in the presence of 10 μM GTPγS: basal binding was determined in the presence of buffer only. After addition of 50 pM [^35S]GTPγS in a volume of 25 μL to the tubes, membranes were incubated for an additional 60 min at 30° C. The assay was terminated by rapid filtration through Packard UniFilter GF/B using a Packard harvester and washed four times with 1 ml ice-cold buffer. After drying the filters at 40° C. for 1 h, 40 μL Microscint (Packard) was added to the filters and radioactivity of the filters was determined by a TopCount NXT (PerkinElmer, Waltham, Mass.: Alper and Nelson, Eur. J. Pharmacol. 1998, 343, 303-312; Rinken et al, Biochem. Pharmacol. 1999, 57, 155-162). Data thus gathered were used to determine PAM EC50 values for each compound as primary in vitro activity end point.

adult rats = assay: Foot shock-induced ultrasonic vocalization (USV) in adult rats; format: in vivo, rat; conditions: 1 mg/kg per os, 1 h before shocking, male Wistar rats, versus vehicle
Description: Foot Shock-Induced Ultrasonic Vocalization (USV) in Adult Rats
(§1) Under stressful conditions, adult rats emit 22 kHz ultrasounds that can be reduced by various pharmacological treatments (De Vry et al, Eur. J. Pharmacol. 1993, 249, 331-339; Sanchez, Eur. J. Pharmacol. 2003, 463, 133-143). […] Therefore, a foot shock-induced vocalization paradigm in adult rats was used to assess efficacy of centrally acting GABAB receptor ligands. Behavioral measurements were carried out on male Wistar rats (200-250 g, Toxicoop, Hungary). Rats were housed in groups of four in plastic cages with a wire grid top in a temperature and light-controlled laboratory animal care unit (22±2° C., 12-h light/dark cycle, lights on at 6:00 AM) with ad libitum access to commercial pellet rat food and tap water. Investigations were approved by the Local Ethical Committee of Gedeon Richter Plc. and were carried out in strict compliance with the European Directive 2010/63/EU regarding the care and use of laboratory animals for experimental procedures and all efforts were made to minimize the number of animals as well as their suffering. In order to evoke emission of ultrasounds, animals were footshocked after a habituation period of 30 s (6 shocks, 1 s, 0.8 mA each, inter-shock interval 10 s) in a sound attenuated shocking chamber (Experimetria, 40×40×80 cm). Investigational compounds were administered at the dose of 1 mg/kg in a solid dispersion formulation in distilled water 1 h before shocking per os. Vocalizations were measured right after the last footshock for 10 min with a Metris Sonotrack system and the total time of vocalizations was registered. Vocalization of parallel vehicle treated animals was considered as control value and inhibition percent was calculated for each compound. At approximately 75 min after treatment and behavioral measurements, blood and brain samples were harvested in order to determine exposures associated with in vivo activity.

[1] = Plasma and brain levels after the USV assay; format: in vivo, rat; conditions: 1 mg/kg per os, approximately 75 min after treatment; for brain exposure at 1 mg/kg: rat brain; for plasma exposure at 1 mg/kg: rat plasma
Description: as §1
In Table 2 compounds of this invention measured in the USV assay are listed. In Table 3 plasma and brain levels of compounds of this invention are listed.

GABAB receptors = GABAB receptors (Homo sapiens, UniProt O75899+Q9UBS5); conditions: in vitro positive allosteric activity, [35S]GTPγS binding; cited from earlier work
Chain of GABAB receptors (O75899 42-941): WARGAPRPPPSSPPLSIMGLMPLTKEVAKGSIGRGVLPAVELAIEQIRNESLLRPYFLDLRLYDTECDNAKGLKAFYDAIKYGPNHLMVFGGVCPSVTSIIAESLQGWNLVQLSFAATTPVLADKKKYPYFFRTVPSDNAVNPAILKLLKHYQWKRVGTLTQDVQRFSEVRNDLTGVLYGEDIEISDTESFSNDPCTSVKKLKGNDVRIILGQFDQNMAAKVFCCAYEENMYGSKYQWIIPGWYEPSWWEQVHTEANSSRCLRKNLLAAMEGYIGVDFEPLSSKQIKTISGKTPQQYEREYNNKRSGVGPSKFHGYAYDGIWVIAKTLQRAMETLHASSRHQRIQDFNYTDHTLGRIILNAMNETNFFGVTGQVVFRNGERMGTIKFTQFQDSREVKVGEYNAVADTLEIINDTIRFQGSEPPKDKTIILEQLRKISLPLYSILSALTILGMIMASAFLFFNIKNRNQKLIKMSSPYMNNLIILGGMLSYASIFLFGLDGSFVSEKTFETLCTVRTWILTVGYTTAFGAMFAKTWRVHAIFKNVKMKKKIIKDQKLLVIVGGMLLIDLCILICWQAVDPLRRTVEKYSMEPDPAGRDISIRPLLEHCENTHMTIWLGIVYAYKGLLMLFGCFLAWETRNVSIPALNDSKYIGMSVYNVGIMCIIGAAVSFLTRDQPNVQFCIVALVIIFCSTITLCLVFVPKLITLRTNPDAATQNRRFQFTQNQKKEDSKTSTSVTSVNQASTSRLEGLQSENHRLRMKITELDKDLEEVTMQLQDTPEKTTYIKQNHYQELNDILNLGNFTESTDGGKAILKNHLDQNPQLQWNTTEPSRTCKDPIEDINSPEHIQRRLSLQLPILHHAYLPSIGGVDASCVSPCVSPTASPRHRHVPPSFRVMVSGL
Chain of GABAB receptors (Q9UBS5 15-961 limits assumed): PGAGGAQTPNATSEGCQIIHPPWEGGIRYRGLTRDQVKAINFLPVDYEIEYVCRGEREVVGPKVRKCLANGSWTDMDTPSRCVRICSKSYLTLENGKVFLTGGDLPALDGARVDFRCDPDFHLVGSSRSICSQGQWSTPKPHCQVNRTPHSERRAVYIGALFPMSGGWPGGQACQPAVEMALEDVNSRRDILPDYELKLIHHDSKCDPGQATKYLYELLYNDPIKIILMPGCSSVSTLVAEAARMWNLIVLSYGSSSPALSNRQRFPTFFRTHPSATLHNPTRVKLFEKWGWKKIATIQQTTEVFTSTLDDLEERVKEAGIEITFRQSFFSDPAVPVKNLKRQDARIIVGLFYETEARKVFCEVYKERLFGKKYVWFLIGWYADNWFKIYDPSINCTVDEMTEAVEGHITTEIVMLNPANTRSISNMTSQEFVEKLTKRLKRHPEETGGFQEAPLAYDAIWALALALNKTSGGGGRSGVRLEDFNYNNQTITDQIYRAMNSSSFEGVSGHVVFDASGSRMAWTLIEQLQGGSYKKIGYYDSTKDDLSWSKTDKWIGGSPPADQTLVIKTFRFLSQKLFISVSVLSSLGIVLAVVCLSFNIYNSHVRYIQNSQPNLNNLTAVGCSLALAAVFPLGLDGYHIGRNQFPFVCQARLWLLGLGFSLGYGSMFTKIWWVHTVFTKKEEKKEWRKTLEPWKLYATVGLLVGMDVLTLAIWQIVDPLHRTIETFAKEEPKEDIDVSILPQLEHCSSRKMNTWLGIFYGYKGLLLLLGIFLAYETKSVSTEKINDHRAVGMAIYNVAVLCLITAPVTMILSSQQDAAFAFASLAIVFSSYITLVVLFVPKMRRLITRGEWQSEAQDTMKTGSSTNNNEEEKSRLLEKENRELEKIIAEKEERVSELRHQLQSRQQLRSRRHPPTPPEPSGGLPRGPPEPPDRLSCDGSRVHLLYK

T1 sequence (O88871 41-940): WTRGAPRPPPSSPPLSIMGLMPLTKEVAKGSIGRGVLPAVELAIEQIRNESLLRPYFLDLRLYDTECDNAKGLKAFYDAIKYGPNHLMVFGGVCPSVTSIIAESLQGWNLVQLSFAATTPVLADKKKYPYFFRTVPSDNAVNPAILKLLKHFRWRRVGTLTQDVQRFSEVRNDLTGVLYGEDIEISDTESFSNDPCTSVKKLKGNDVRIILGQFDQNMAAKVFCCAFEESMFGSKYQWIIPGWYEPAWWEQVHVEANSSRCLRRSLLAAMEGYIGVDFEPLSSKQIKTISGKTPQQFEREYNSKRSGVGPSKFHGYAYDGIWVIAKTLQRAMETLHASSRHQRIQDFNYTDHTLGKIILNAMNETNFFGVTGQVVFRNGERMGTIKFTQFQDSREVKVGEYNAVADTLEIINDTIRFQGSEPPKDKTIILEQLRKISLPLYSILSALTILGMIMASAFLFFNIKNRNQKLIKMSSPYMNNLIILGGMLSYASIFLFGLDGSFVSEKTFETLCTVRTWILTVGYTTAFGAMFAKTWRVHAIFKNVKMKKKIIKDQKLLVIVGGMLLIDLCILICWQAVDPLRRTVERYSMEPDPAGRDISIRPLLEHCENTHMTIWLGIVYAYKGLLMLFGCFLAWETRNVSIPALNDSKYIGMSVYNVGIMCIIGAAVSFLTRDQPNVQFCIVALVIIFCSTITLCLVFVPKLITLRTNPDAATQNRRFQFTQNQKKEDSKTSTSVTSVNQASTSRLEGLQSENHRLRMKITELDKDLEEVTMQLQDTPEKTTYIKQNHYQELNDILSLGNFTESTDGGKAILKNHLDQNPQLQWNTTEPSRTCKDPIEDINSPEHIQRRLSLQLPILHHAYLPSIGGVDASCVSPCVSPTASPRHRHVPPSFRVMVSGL
T1 sequence (Q9Z0U4 17-960 limits assumed): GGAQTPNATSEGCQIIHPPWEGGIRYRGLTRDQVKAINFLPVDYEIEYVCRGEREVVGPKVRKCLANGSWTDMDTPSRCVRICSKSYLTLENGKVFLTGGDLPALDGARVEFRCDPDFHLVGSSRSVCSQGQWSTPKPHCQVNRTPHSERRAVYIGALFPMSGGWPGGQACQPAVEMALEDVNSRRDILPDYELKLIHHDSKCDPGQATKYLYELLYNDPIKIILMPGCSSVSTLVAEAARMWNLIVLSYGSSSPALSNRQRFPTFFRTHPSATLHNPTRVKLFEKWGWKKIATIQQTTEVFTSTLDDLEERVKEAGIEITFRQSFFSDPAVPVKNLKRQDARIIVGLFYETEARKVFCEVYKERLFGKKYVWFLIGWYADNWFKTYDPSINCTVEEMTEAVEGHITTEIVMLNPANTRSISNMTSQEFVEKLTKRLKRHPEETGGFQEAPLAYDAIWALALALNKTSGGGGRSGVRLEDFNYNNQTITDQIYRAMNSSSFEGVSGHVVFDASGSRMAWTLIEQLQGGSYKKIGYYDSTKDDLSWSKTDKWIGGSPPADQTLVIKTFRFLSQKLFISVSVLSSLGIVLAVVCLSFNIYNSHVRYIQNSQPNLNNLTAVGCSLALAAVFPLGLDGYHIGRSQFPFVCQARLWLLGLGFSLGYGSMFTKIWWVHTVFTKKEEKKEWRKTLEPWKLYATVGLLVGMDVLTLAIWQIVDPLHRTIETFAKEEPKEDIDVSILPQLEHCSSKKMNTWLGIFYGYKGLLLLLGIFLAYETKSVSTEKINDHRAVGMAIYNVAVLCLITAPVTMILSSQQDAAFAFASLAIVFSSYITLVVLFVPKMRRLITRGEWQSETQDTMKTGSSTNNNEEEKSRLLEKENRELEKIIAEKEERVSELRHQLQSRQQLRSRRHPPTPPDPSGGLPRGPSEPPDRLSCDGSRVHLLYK

Structure (SMILES)	EC50 (GABAB receptor) [nM]	brain exposure at 1 mg/kg [1] [ng/g]	plasma exposure at 1 mg/kg [1] [ng/mL]	USV inhibition at 1 mg/kg (%) (adult rats)	binding potency (Faghih et al.) (GABAB receptors)
Cc1nc2cc([C@H]3CC[C@H](C(F)(F)F)CC3)nn2c(N2CCC[C@@](C)(C(=O)O)C2)c1C(C)C [Example 3, (3R)-3-methyl-1-[5-methyl-6-(propan-2-yl)-2-[trans-4-(trifluoromethyl)cyclohexyl]-pyrazolo [1,5-a]pyrimidin-7-yl]piperidine-3-carboxylic Acid]	< 1	18	58	100	–
CCC(c1ccc(Cl)cc1)c1cc2nc(C)cc(N3CCCCC3CCO)n2n1 (stereo not drawn) [Example 3-1]	–	–	–	–	nanomolar
CCCC(c1ccc(Cl)cc1)c1cc2nc(C)cc(N3CCCCC3CCO)n2n1 (stereo not drawn) [Example 5-1]	–	–	–	–	nanomolar
Cc1cc(N2CCCCC2CCO)n2nc(CC34CC5CC(CC(C5)C3)C4)cc2n1 (stereo not drawn) [Example 7-1]	–	–	–	–	high micromolar

Further lines, with some results ahead:

EC50 (GABAB receptor) [nM]	brain exposure at 1 mg/kg [1] [ng/g]	plasma exposure at 1 mg/kg [1] [ng/mL]	Structure (SMILES)	USV inhibition at 1 mg/kg (%) (adult rats)	binding potency (Faghih et al.) (GABAB receptors)
1 to 10	68	146	Cc1nc2cc([C@H]3CC[C@H](C(F)(F)F)CC3)nn2c(N2CCC[C@](C)(C(=O)O)C2)c1C(C)C [Example 11]	71	–
1 to 10	35	207	C[C@@]1(C(=O)O)CCCN(c2c3c(nc4cc([C@H]5CC[C@H](C(F)(F)F)CC5)nn24)CCCCC3)C1 [Example 35]	57	–
